Molecules are shown by their SMILES. Activity calls are given as the source filed them. The calls are words filed in the database; no cut-off is given here.

The nature of assay [1]: Cell cycle arrest in human Rh30 cells assessed as increase in subG1 cell phase at 10 uM by flow cytometric analysis. It is filed as functional, cell-based. The settings on record: SJRH30. Background: A flow cytometer gives signals particle by particle.
Assay [2] deals with Platelet-derived growth factor receptor beta (Homo sapiens) (UniProt P09619). Briefly: Inhibition of PDGFRbeta at 10 uM.
In assay [3] the test system is HT-29. Briefly: Antiproliferative activity against human HT-29 cells. It is filed as functional, cell-based.
Assay [4] can be described thus: Inhibition of PI3K-mediated mTOR pathway by Western blot analysis.
The target in assay [5] is Macrophage-stimulating protein receptor (Homo sapiens) (UniProt Q04912). Briefly: Inhibition of RON at 10 uM.
A short description of assay [6]: Antiproliferative activity against human BEL-7402 cells.
In assay [7] the target is Epidermal growth factor receptor (Homo sapiens) (UniProt P00533). The settings on record: at 10 µM.
Description: Inhibition of EGFR at 10 uM
Assay [8] deals with Vascular endothelial growth factor receptor 2 (Homo sapiens) (UniProt P35968). The settings on record: at 10 µM.
Description: Inhibition of KDR at 10 uM
The subject of assay [9] is MCF7. Briefly: Antiproliferative activity against human MCF7 cells. It is filed as functional, cell-based.
Assay [10] concerns the target Proto-oncogene tyrosine-protein kinase Src (Homo sapiens) (UniProt P12931). The settings on record: at 10 µM.
Description: Inhibition of c-Src at 10 uM
The target in assay [11] is Hepatocyte growth factor receptor (Homo sapiens) (UniProt P08581). As to the kind of experiment: Inhibition of c-Met at 10 uM.
Assay [12] relates to ECV-304. As to the kind of experiment: Antiproliferative activity against human ECV304 cells. It is filed as functional, cell-based.
In assay [13] the target is Receptor tyrosine-protein kinase erbB-2 (Homo sapiens) (UniProt P04626). As to the kind of experiment: Inhibition of ErbB2 at 10 uM.
Assay [14] can be described thus: Inhibition of PI3K-mediated p70S6K1 phosphorylation at Thr389 at 3 uM by Western blot analysis.
The target of assay [15] is Proto-oncogene tyrosine-protein kinase receptor Ret (Homo sapiens) (UniProt P07949). Briefly: Inhibition of RET at 10 uM.
In assay [16] the target is Phosphatidylinositol 4,5-bisphosphate 3-kinase catalytic subunit alpha isoform (Homo sapiens, UniProt P42336). Briefly: Inhibition of PI3Kalpha by luminescent kinase assay.
Assay [17] can be described thus: Inhibition of PI3K-mediated Akt pathway by Western blot analysis.
A short description of assay [18]: Inhibition of PI3K-mediated Akt phosphorylation at Ser473 at 3 uM by Western blot analysis. For orientation: A western blot detects proteins with antibodies after separation by electrophoresis.
A short description of assay [19]: Cell cycle arrest in human Rh30 cells assessed as increase in G1 cell population at 1 to 10 uM by flow cytometric analysis. In kind it is functional, cell-based. The settings on record: SJRH30.
For assay [20], the target named is Platelet-derived growth factor receptor alpha (Homo sapiens) (UniProt P16234). Briefly: Inhibition of PDGFRalpha at 10 uM.
The target of assay [21] is Insulin-like growth factor 1 receptor (Homo sapiens) (UniProt P08069). Briefly: Inhibition of IGF1R at 10 uM.
The target of assay [22] is Mast/stem cell growth factor receptor Kit (Homo sapiens) (UniProt P10721). As to the kind of experiment: Inhibition of c-Kit at 10 uM.
Assay [23] concerns the target T1, Ephrin type-B receptor 2 (Homo sapiens) (UniProt P29323).
T1 sequence (whole entry): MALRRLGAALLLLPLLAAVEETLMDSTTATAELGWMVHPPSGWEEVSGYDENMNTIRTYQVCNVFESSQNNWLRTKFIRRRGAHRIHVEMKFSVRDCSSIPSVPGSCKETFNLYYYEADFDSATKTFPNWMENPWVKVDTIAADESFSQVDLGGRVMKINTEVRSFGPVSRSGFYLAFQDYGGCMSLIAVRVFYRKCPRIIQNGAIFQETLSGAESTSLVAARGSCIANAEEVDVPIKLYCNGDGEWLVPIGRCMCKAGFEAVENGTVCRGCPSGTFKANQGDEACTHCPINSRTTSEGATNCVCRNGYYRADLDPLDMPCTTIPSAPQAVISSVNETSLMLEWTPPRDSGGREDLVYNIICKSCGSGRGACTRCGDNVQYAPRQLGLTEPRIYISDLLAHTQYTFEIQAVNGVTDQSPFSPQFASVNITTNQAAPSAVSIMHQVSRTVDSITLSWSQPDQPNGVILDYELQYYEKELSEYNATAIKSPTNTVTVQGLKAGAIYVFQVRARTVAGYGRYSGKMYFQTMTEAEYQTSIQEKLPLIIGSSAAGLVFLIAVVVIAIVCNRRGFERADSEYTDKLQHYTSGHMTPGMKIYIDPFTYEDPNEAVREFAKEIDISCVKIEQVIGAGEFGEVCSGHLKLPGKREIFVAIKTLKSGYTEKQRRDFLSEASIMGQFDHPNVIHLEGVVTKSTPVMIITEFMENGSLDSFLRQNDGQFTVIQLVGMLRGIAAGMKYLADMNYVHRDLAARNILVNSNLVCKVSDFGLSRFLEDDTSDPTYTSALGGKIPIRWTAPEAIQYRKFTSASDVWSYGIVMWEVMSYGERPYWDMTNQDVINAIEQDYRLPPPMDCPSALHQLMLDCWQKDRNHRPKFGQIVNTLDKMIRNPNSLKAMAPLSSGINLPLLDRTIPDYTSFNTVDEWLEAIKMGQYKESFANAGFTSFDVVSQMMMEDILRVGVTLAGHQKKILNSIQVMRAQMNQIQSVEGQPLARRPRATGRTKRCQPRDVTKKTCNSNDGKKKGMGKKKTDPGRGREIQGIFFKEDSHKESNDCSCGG
As to the kind of experiment: Inhibition of EPH-B2 at 10 uM.

Sequence of Proto-oncogene tyrosine-protein kinase Src (Homo sapiens) (P12931 2-536 limits assumed): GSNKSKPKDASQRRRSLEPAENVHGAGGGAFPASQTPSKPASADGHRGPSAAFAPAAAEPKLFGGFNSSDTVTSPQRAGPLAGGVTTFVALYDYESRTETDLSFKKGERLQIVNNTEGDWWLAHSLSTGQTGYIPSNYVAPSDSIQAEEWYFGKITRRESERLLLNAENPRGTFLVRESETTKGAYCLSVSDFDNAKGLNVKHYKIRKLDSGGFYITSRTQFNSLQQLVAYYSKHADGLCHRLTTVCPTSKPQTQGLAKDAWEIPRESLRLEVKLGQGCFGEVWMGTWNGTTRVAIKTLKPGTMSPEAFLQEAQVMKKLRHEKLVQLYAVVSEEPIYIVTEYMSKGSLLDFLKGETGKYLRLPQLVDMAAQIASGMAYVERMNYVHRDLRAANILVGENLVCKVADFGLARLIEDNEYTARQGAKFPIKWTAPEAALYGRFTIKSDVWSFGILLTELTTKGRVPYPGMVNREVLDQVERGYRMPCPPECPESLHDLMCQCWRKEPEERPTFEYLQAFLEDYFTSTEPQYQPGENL
Sequence of Platelet-derived growth factor receptor alpha (Homo sapiens) (P16234 whole entry): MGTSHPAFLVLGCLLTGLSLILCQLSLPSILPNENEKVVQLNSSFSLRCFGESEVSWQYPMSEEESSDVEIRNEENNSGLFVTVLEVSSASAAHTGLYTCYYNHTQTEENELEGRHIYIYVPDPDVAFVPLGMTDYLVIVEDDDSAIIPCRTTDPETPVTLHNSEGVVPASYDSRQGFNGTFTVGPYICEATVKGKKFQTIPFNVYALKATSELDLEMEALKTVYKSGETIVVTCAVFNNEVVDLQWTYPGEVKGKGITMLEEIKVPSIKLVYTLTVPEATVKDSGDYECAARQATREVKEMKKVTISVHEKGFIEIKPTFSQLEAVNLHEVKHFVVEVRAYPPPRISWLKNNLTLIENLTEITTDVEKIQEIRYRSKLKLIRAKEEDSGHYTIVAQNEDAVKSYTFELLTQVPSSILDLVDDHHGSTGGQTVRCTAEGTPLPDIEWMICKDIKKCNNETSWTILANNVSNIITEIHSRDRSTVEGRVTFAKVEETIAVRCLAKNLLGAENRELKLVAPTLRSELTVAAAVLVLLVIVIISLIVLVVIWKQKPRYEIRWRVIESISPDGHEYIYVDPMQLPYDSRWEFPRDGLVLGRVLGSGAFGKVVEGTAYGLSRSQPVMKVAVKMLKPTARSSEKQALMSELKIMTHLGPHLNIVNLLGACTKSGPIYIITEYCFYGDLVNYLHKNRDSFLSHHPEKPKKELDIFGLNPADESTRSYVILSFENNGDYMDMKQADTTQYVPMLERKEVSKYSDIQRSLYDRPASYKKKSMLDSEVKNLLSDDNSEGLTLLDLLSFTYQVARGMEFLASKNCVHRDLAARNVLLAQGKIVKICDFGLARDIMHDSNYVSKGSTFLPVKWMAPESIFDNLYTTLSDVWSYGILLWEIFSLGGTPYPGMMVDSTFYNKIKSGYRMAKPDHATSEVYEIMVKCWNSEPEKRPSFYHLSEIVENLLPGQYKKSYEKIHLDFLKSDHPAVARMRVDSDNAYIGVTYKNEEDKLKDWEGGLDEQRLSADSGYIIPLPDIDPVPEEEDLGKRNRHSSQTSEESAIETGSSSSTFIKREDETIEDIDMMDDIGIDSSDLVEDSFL
Sequence of Platelet-derived growth factor receptor beta (Homo sapiens) (P09619 whole entry): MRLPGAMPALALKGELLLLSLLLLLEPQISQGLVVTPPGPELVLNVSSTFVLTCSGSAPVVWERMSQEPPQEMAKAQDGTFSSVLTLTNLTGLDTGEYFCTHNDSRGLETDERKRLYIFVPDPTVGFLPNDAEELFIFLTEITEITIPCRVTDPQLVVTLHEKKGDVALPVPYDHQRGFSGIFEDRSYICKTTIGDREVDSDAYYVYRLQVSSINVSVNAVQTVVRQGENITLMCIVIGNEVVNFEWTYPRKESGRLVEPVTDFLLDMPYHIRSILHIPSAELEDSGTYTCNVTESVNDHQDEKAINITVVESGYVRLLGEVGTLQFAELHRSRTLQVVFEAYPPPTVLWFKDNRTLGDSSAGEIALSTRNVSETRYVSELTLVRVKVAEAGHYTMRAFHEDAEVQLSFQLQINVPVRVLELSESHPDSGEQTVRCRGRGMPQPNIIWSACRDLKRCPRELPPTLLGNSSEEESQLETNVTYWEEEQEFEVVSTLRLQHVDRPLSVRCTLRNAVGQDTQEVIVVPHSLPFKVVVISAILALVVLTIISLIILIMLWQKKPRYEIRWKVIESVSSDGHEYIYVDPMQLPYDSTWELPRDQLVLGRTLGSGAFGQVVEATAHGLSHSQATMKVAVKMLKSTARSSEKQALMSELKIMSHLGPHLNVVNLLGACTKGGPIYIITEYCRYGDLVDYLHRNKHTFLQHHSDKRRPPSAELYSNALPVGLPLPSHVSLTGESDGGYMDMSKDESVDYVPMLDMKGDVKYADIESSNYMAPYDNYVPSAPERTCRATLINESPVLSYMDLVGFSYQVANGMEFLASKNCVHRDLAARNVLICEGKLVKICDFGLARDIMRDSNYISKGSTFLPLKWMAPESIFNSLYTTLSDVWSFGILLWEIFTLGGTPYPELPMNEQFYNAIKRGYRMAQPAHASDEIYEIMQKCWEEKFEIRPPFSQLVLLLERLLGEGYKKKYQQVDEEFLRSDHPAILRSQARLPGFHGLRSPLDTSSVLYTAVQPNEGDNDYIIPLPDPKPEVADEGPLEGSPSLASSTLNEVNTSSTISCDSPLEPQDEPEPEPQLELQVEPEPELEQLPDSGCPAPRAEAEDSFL
Sequence of Phosphatidylinositol 4,5-bisphosphate 3-kinase catalytic subunit alpha isoform (P42336 whole entry, canonical isoform): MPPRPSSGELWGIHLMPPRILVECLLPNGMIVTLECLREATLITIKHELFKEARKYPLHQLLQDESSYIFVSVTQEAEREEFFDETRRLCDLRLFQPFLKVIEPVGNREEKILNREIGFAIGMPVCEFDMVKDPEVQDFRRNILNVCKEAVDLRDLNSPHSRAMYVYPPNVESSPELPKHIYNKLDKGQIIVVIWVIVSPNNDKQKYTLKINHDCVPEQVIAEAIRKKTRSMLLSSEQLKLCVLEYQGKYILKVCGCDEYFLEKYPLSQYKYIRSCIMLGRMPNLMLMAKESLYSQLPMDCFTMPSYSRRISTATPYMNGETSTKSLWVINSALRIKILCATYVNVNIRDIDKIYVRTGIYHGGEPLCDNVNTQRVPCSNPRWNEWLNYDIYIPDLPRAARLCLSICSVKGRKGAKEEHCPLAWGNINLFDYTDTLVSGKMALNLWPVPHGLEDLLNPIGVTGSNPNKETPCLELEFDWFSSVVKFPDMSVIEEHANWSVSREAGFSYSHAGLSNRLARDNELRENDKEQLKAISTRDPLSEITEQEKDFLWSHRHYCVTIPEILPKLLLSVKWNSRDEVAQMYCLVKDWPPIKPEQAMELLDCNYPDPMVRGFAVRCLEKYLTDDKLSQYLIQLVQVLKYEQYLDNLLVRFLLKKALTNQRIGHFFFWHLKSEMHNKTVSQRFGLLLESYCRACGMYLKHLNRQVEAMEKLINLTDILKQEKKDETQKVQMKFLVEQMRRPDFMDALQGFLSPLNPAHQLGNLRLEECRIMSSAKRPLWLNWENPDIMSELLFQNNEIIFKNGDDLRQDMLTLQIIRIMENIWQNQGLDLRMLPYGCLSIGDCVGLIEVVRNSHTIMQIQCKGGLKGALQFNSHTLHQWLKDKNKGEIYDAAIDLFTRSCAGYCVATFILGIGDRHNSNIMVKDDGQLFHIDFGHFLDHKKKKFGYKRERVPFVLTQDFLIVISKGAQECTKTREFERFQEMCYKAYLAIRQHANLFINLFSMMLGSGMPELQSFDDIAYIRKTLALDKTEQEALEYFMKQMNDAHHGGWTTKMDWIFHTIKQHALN
Sequence of Receptor tyrosine-protein kinase erbB-2 (Homo sapiens) (P04626 whole entry): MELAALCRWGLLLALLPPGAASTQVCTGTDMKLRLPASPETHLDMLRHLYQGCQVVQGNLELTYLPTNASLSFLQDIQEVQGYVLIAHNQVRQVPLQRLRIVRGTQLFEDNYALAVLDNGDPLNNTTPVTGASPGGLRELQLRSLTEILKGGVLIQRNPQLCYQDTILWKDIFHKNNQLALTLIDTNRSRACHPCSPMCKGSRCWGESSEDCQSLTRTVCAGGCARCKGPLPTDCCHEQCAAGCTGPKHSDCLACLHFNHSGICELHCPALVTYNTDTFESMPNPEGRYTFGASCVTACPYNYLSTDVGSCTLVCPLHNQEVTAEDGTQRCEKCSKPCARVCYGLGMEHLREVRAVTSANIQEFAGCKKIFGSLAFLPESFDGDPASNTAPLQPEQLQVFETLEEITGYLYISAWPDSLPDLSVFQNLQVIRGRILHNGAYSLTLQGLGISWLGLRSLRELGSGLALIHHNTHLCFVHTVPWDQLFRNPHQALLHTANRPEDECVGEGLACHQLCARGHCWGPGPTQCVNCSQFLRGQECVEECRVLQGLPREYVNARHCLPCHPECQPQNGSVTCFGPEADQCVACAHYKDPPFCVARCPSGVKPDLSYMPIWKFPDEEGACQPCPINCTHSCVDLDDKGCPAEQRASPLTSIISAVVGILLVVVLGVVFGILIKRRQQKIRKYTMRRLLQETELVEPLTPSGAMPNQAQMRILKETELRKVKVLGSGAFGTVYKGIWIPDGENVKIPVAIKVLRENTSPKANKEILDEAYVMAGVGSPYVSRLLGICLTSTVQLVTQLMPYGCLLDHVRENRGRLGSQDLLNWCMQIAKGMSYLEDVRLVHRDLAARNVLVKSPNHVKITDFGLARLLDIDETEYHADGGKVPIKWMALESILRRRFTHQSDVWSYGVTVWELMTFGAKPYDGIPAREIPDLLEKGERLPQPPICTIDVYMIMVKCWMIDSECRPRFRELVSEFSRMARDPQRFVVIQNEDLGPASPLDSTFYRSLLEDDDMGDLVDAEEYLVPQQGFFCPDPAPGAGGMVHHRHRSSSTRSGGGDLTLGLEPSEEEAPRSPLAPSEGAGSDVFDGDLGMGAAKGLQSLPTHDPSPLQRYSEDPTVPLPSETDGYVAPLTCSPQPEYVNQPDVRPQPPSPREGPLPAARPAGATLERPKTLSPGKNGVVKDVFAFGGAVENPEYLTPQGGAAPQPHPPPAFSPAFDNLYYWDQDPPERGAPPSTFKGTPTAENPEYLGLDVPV

By inhibition is commonly meant the relative decrease from the control value, in per cent. By IC50 is commonly meant the point on the concentration scale where inhibition reaches its midpoint. Regarding `CC(=O)Oc1cccc(-c2nc(N3CCOCC3)c3cc4ncccc4n3n2)c1`, the result in assay [1] and in assay [19] was Active. For the same compound, the inhibition in assay [2] stood at 0%; in assay [5], 9.4%; in assay [7], 4.6%; in [8], 23.1%; in assay [10], 40%; in assay [11] it was 29%. Besides, the inhibition in assay [13] came to 7.1%; in assay [15], 19%; in assay [20], 21.8%; in assay [21], 33.4%; in assay [22] it was 24.7%; in assay [23], 37.2%. The IC50 is above 50 µM in [3]; 12.1 µM in assay [6]; 14.4 µM in assay [9]; 3.8 µM in assay [12]; 0.0497 µM in assay [16]. In addition, the “mTOR pathway inhibition (qualitative)” value in [4] is “Dose-dependent effect”. The inhibition result in assay [14] and in [18] was “Active” throughout. Also, the “Akt pathway inhibition (qualitative)” value in [17] is “Dose-dependent effect”.

Take `O=C(Oc1cccc(-c2nc(N3CCOCC3)c3cc4ncccc4n3n2)c1)c1ccncc1`: the result in [1] and in assay [19] was Active. For the same compound, the inhibition amounted to 34.7% in assay [2]; 27.2% in assay [5]; 6.2% in [7]; 35.4% in assay [8]; 67.2% in [10]; 34.8% in [11]. Also, the inhibition in assay [13] was 23.3%; in assay [15], 28.9%; in assay [20], 40%; in [21], 39.8%; in assay [22] it was 45.2%; in assay [23], 53.8%. The IC50 in [3] came to 28 µM; in assay [6] it was 13.3 µM; in [9], 20 µM; in [12], 10 µM; in assay [16], 0.421 µM. Also, the “mTOR pathway inhibition (qualitative)” value in assay [4] was “Dose-dependent effect”. Moreover, the inhibition result in assay [14] and in [18] was “inactive” each time. Moreover, in assay [17], the “Akt pathway inhibition (qualitative)” value is “Dose-dependent effect”.

In the case of `Oc1cccc(-c2nc(N3CCOCC3)c3cc4ncccc4n3n2)c1`, the outcome in assay [1] and in assay [19] was Active. Further, the inhibition in assay [2] is 42.4%; in assay [5], 37%; in assay [7], 17.4%; in assay [8] it was 39.2%; in assay [10], 65.3%; in [11], 43.8%. For the same compound, the inhibition in [13] is 10.9%; in assay [15], 37.8%; in [20], 41.2%; in assay [21] it was 35.2%; in assay [22], 49.4%; in assay [23], 44%. In addition, the IC50 came out at 22.3 µM in assay [3]; 13.1 µM in assay [6]; 22.7 µM in assay [9]; 6.7 µM in assay [12]; 0.0336 µM in assay [16]. Moreover, in assay [4], the “mTOR pathway inhibition (qualitative)” value is “Dose-dependent effect”. Besides, the inhibition result in assay [14] and in [18] was “Active” each time. In assay [17], the “Akt pathway inhibition (qualitative)” value is “Dose-dependent effect”.

The values above are taken from ChEMBL document CHEMBL1933031, “Discovery and bioactivity of 4-(2-arylpyrido[3',2':3,4]pyrrolo[1,2-f][1,2,4]triazin-4-yl) morpholine derivatives as novel PI3K inhibitors” (Bioorg Med Chem Lett, 2012).
